Source: patent publication EP0171362A1, “Aminoalkyl penem compounds” (priority 1984, dated 1986)
≈ marks a conversion by molar mass, not a printed value.

Assays:
Type in all cases: cell-based
[1] = tested on: Staphylococcus aureus 10 B; assay: In vitro antibiotic activity (MIC)
[2] = tested on: Neisseria gonorrhoeae 1317/4; assay: In vitro antibiotic activity (MIC)
[3] = tested on: Clostridium perfringens 194 AN; assay: microbe, parasite or virus in culture; conditions: read-out: in vitro MIC
[4] = tested on: Staphylococcus aureus Wood 46; assay: In vitro antibiotic activity (MIC); conditions: WOOD46
[5] = tested on: Enterobacter cloacae P 99; assay: In vitro antibiotic activity (MIC); conditions: P99, read-out: in vitro MIC
[6] = tested on: Staphylococcus aureus 2999i+p+; assay: In vitro antibiotic activity (MIC)
Escherichia coli UB 1005 = assay: In vitro antibiotic activity (MIC); conditions: UB1005
Source text: Ueberraschenderweise weisen die erfindungsgemässen Penem-Verbindungen gegenüber strukturverwandten und vorbekannten Penemen eine überlegene Wirksamkeit auf. Dies wird deutlich beim Vergleich der MIC-Daten (minimum inhibitory concentrations, in vitro gemessen) von (5R,6S)-2-[(2R,S)-2-Amino-but-1-yl)-6-[(lR)-1-hydroxyäthyl]-2-penem-3-carbonsäure (Verbindung A) mit bekannten homologen Penemen, die in Position 2 des Penem-Ringes einen 4-Aminobutyl- bzw. 1-Aminobutyl-Substituenten tragen, nämlich (5R,6S)-2-(4-Aminobutyl)-6-hydroxymethyl-2-penem-3-carbonsäure (Europäische Patentanmeldung Nr. 82113, Verbindung B) und (5R,6S)-2-(1-Aminobutyl)-6-hydroxymethyl-2-penem-3-carbonsäure (Europäische Patentanmeldung Nr. 125 208, Verbindung C). Die Ergebnisse sind in der folgenden Tabelle 1 zusammengefasst.

Escherichia coli 16 = assay: In vitro antibiotic activity (MIC)
Proteus mirabilis 774 = assay: In vitro antibiotic activity (MIC)
Serratia marcescens 344 = assay: In vitro antibiotic activity (MIC)
[7] = tested on: Pseudomonas aeruginosa 143738R; assay: In vitro antibiotic activity (MIC)
Escherichia coli B-1385 = assay: In vitro antibiotic activity (MIC); conditions: B1385
[8] = tested on: Escherichia coli 205 R + TEM; assay: In vitro antibiotic activity (MIC); conditions: read-out: in vitro MIC
Escherichia coli DC 2 = assay: In vitro antibiotic activity (MIC); conditions: DC2
[9] = tested on: Neisseria meningitidis 1316; assay: In vitro antibiotic activity (MIC)
Proteus morganii 2359 = assay: In vitro antibiotic activity (MIC); conditions: Morganella morganii
[10] = tested on: Pseudomonas aeruginosa ATCC 12055; assay: In vitro antibiotic activity (MIC); conditions: ATCC12055
[11] = tested on: Klebsiella pneumoniae 327; assay: In vitro antibiotic activity (MIC)
[12] = tested on: Haemophilus influenzae 24; assay: In vitro antibiotic activity (MIC)
[13] = tested on: Bacteroides fragilis L 01; assay: In vitro antibiotic activity (MIC); conditions: L01
Escherichia coli 2018 = assay: In vitro antibiotic activity (MIC)
[14] = tested on: Streptococcus pyogenes Aronson 1129; assay: In vitro antibiotic activity (MIC); conditions: ARONSON1129
[15] = tested on: Streptococcus pneumoniae III/84; assay: In vitro antibiotic activity (MIC)
[16] = tested on: Enterobacter cloacae ATCC 13074; assay: In vitro antibiotic activity (MIC); conditions: ATCC13074
Escherichia coli 205 = assay: In vitro antibiotic activity (MIC)
[17] = tested on: Pseudomonas aeruginosa K 799/61; assay: In vitro antibiotic activity (MIC); conditions: K799/61, read-out: in vitro MIC
[18] = tested on: Staphylococcus aureus A 124; assay: In vitro antibiotic activity (MIC); conditions: A124

SMILES: CCC(N)CC1=C(C(=O)O)N2C(=O)[C@H]([C@@H](C)O)[C@H]2S1 (stereo partly drawn) [Verbindung A, (5R,6S)-2-[(2R,S)-2-Amino-but-1-yl)-6-[(lR)-1-hydroxyäthyl]-2-penem-3-carbonsäure]
- MIC [1]: 0.02 µg/mL (≈ 0.0698 µM)
- MIC [2]: 0.5 µg/mL (≈ 1.75 µM)
- MIC [3]: 0.2 µg/mL (≈ 0.698 µM)
- MIC [4]: 0.02 µg/mL (≈ 0.0698 µM)
- MIC [5]: 0.5 µg/mL (≈ 1.75 µM)
- MIC [6]: 0.05 µg/mL (≈ 0.175 µM)
- MIC (Escherichia coli UB 1005): 2 µg/mL (≈ 6.98 µM)
- MIC (Escherichia coli 16): 1 µg/mL (≈ 3.49 µM)
- MIC (Proteus mirabilis 774): 2 µg/mL (≈ 6.98 µM)
- MIC (Serratia marcescens 344): 8 µg/mL (≈ 27.9 µM)
- MIC [7]: 64 µg/mL (≈ 224 µM)
- MIC (Escherichia coli B-1385): 1 µg/mL (≈ 3.49 µM)
- MIC [8]: 2 µg/mL (≈ 6.98 µM)
- MIC (Escherichia coli DC 2): 16 µg/mL (≈ 55.9 µM)
- MIC [9]: 1 µg/mL (≈ 3.49 µM)
- MIC (Proteus morganii 2359): 8 µg/mL (≈ 27.9 µM)
- MIC [10]: 32 µg/mL (≈ 112 µM)
- MIC [11]: 1 µg/mL (≈ 3.49 µM)
- MIC [12]: 16 µg/mL (≈ 55.9 µM)
- MIC [13]: 0.5 µg/mL (≈ 1.75 µM)
- MIC (Escherichia coli 2018): 0.5 µg/mL (≈ 1.75 µM)
- MIC [14]: 0.05 µg/mL (≈ 0.175 µM)
- MIC [15]: 0.05 µg/mL (≈ 0.175 µM)
- MIC [16]: 2 µg/mL (≈ 6.98 µM)
- MIC (Escherichia coli 205): 1 µg/mL (≈ 3.49 µM)
- MIC [17]: 4 µg/mL (≈ 14 µM)
- MIC [18]: 0.1 µg/mL (≈ 0.349 µM)

SMILES: NCCCCC1=C(C(=O)O)N2C(=O)[C@H](CO)[C@H]2S1 [Verbindung B, (5R,6S)-2-(4-Aminobutyl)-6-hydroxymethyl-2-penem-3-carbonsäure]
- MIC [1]: 0.5 µg/mL (≈ 1.84 µM)
- MIC [3]: 4 µg/mL (≈ 14.7 µM)
- MIC [5]: 4 µg/mL (≈ 14.7 µM)
- MIC [6]: 0.5 µg/mL (≈ 1.84 µM)
- MIC (Escherichia coli UB 1005): 4 µg/mL (≈ 14.7 µM)
- MIC (Escherichia coli 16): 4 µg/mL (≈ 14.7 µM)
- MIC (Proteus mirabilis 774): 16 µg/mL (≈ 58.8 µM)
- MIC (Serratia marcescens 344): 16 µg/mL (≈ 58.8 µM)
- MIC [8]: 8 µg/mL (≈ 29.4 µM)
- MIC (Escherichia coli DC 2): 8 µg/mL (≈ 29.4 µM)
- MIC (Proteus morganii 2359): 16 µg/mL (≈ 58.8 µM)
- MIC [10]: 8 µg/mL (≈ 29.4 µM)
- MIC [11]: 4 µg/mL (≈ 14.7 µM)
- MIC [13]: 0.5 µg/mL (≈ 1.84 µM)
- MIC [14]: 0.5 µg/mL (≈ 1.84 µM)
- MIC [15]: 0.5 µg/mL (≈ 1.84 µM)
- MIC [16]: 16 µg/mL (≈ 58.8 µM)
- MIC (Escherichia coli 205): 4 µg/mL (≈ 14.7 µM)
- MIC [17]: 4 µg/mL (≈ 14.7 µM)

SMILES: CCCC(N)C1=C(C(=O)O)N2C(=O)[C@H](CO)[C@H]2S1 (stereo partly drawn) [Verbindung C, (5R,6S)-2-(1-Aminobutyl)-6-hydroxymethyl-2-penem-3-carbonsäure]
- MIC [1]: 0.05 µg/mL (≈ 0.184 µM)
- MIC [2]: 2 µg/mL (≈ 7.34 µM)
- MIC [3]: 64 µg/mL (≈ 235 µM)
- MIC [4]: 0.05 µg/mL (≈ 0.184 µM)
- MIC [5]: 64 µg/mL (≈ 235 µM)
- MIC [6]: 0.05 µg/mL (≈ 0.184 µM)
- MIC (Escherichia coli UB 1005): 64 µg/mL (≈ 235 µM)
- MIC (Escherichia coli 16): 64 µg/mL (≈ 235 µM)
- MIC (Proteus mirabilis 774): > 64 µg/mL
- MIC (Serratia marcescens 344): > 64 µg/mL
- MIC [7]: > 64 µg/mL
- MIC (Escherichia coli B-1385): 64 µg/mL (≈ 235 µM)
- MIC [8]: 64 µg/mL (≈ 235 µM)
- MIC (Escherichia coli DC 2): 64 µg/mL (≈ 235 µM)
- MIC [9]: 1 µg/mL (≈ 3.67 µM)
- MIC (Proteus morganii 2359): > 64 µg/mL
- MIC [10]: > 64 µg/mL
- MIC [11]: 32 µg/mL (≈ 118 µM)
- MIC [12]: 32 µg/mL (≈ 118 µM)
- MIC [13]: 16 µg/mL (≈ 58.8 µM)
- MIC (Escherichia coli 2018): 32 µg/mL (≈ 118 µM)
- MIC [14]: 1 µg/mL (≈ 3.67 µM)
- MIC [15]: 0.05 µg/mL (≈ 0.184 µM)
- MIC [16]: > 64 µg/mL
- MIC (Escherichia coli 205): 64 µg/mL (≈ 235 µM)
- MIC [17]: 64 µg/mL (≈ 235 µM)
- MIC [18]: 0.5 µg/mL (≈ 1.84 µM)
